Data set [1] in a line: Complex formation constants of p-BPA with carbohydrates and polyols, by integration of aryl protons in the 1H NMR spectrum (D2O, pH buffered at 7.4). Conditions: for log Keq (complex formation constant, polyols) / log Keq (complex formation constant, monosaccharides) / log Keq (complex formation constant, disaccharides): L-p-BPA, 1H NMR, D2O, pH buffered at 7.4; for difference in binding constants: maltulose, lactulose and fructose compared; for binding with l-p-BPA / change in the 1H NMR spectrum of l-p-BPA: in words; for decrease in the pKeq values of these complexes: C-6 hydroxyl eliminated from binding, relative to fructose; for decrease in binding: C-3 hydroxyl unavailable. Type of data set: physicochemical. The source says:
(§1) The ratio of free p-BPA to p-BPA:carbohydrate complex can be determined by integration of the aromatic protons resonances (p-BPA, 7.73 and 7.33 ppm; p-BPA-carbohydrate complex, 7.5 and 7.2 ppm) in the ^1 H NMR spectrum using D2 O buffered to physiological pH as the solvent. A minimum of five measurements for each carbohydrate at various concentrations and p-BPA:carbohydrate ratios were taken, and the equilibrium constant calculated (Table 1 and Table 2). Likewise, complex formation constants for p-BPA and some polyols have been calculated (Table 3).
^a All values were determined for L-p-BPA by integration of aryl
protons in the ^j H NMR spectrum (D2 O, pH buffered at 7.4).
^a All values were determined for L-p-BPA by intergration of aryl
protons in the ^l H NMR spectrum (D2 O, pH buffered at 7.4).
The strong correspondence between the NMR data obtained for the l-p-BPA-fructose complex at physiological pH and one of the complexes (e.g., as observed for p-tolylboronic acid with fructose at pD 11-12) was further investigated by a systematic study of the binding ability of fructose-containing disaccharides (Table 2). […] However, the presence of the added 4-O-glucosyl or galactosyl group had no positive effect on binding either.
While the hydroxyl at C-3 for turanose is eliminated from binding due to the presence of the glucosyl moiety, the C-3 hydroxyl of leucrose is also unavailable for binding due to a likely significant contribution from the conformation that places the glucosyl unit in an equatorial position, resulting in a diaxial orientation between the anomeric C-2 hydroxyl and C-3 hydroxyl axial. Loss in binding ability for leucrose can also be attributed to the fructose unit being locked in the less favored pyranose ring form.

Data set [2] is described as follows: State of p-BPA in solution at pH 7.4 with strongly complexing or excess carbohydrate/polyol. Format: physicochemical.
From the text: as §1

For the next data set, the system named is melanoma cells. Conditions: in words; cited from earlier work.
For data set [3] the following is noted: cited from earlier work.
A short description of data set [4]: Hydration of the freeze-dried solid with warm water and standing at room temperature. Format: physicochemical. The procedure: ^10 B enriched l-p-boronophenylalanine (0.520 g) and d-fructose (0.473 g) was suspended in distilled water (3 mL), and l-p-boronophenylalanine was dissolved by addition of 0.5 M NaOH (5.3 mL) with gentle heating. The pH of this solution is typically between 8.5 and 9.0. […] The solution is removed from the resin, and any l-p-boronophenylalanine that is suspended can be redissolved with gentle warming of the solution. The room temperature solution was then filtered through a 0.2μ filter and then freeze-dried to give sodium l-p-boronophenylalanine-d-fructose complex (0.934 g). […] M.p. 90-93° C.

The conditions of data set [5]: intravenous; solution from current methods; cited from earlier work.
A further data set relates to murine melanoma model. Conditions: systemic administration; cited from earlier work.
The conditions of data set [6]: solution from current methods, roughly one equivalent of NaCl; cited from earlier work.
The conditions of data set [7]: 0.1 M solution; cited from earlier work.
The conditions of data set [8]: patients injected with p-BPA solution of this acidity; cited from earlier work.

Values after ≈ are worked out from the molar mass of the structure shown. Counter-ions that a name gives are not always drawn.

A word on the solubility: it is the concentration that dissolves in the medium under given conditions. A low value points to little dissolved substance.

Regarding `OC[C@@H](O)[C@@H](O)[C@H](O)[C@H](O)CO` [Mannitol], the “log Keq (complex formation constant, polyols)” value in data set [1] is given as 2.7.

With `OC[C@@H](O)[C@@H](O)[C@H](O)[C@@H](O)CO` [Sorbitol], the “log Keq (complex formation constant, polyols)” value in data set [1] was found to be 3.2. Consider `O=C[C@H](O)[C@H](O)[C@H](O)CO` [Ribose], for which the “log Keq (complex formation constant, monosaccharides)” value in [1] is 1.8. For `OC[C@H]1O[C@@H](O[C@@H]2[C@@H](CO)OC(O)(CO)[C@H]2O)[C@H](O)[C@@H](O)[C@H]1O` (mixture of isomers) [Lactulose], in data set [1], the “log Keq (complex formation constant, disaccharides)” value was determined as 3.0 and the “difference in binding constants” value is “lack of appreciable difference in binding constants”. Turning to `O=C(CO)[C@@H](O)[C@H](O)[C@H](O)CO` [Fructose], in [1], the “log Keq (complex formation constant, monosaccharides)” value is given as 3.2 and the “difference in binding constants” value is reported as “lack of appreciable difference in binding constants”.

Turning to `N[C@@H](Cc1ccc(B(O)O)cc1)C(=O)O` [p-BPA, p-Boronophenylalanine], the “p-BPA remaining in solution” value in [2] (fructose, sorbose, or large excess of another carbohydrate or polyol) is given as “all of the p-BPA remains in solution”. Further, in data set [2] (remainder as free acid), the “p-BPA present as its sodium carboxylate” value is recorded as “approximately 90%”. Also, in the data set with melanoma cells, the “uptake by melanoma cells” value is recorded as “selectively taken up by melanoma cells”. The “water solubility at physiological pH” value in [3] (pH 7.4, in words) is “poor water solubility”. The solubility in water in data set [3] (water) was 1.6 mg/mL (≈ 7.66 mM). Regarding `OC[C@@H](O)[C@H](O)[C@@H](O)CO` [Xylitol], in data set [1], the “log Keq (complex formation constant, polyols)” value amounted to 2.5. On to `CO[C@@H]1O[C@H](CO)[C@H](O)[C@H](O)[C@H]1O` [methyl-β-galactopyranoside], for which, in [1], the “binding with l-p-BPA” value was “complete lack of binding” and the “change in the 1H NMR spectrum of l-p-BPA” value is reported as “no change”. Consider `O=C(CO)[C@H](O)[C@@H](O)[C@H](O)CO` [Sorbose], for which, in data set [1], the “decrease in the pKeq values of these complexes” value is given as 0.5 pKeq and the “log Keq (complex formation constant, monosaccharides)” value amounted to 2.7.

Turning to `O=C(CO)[C@@H](O[C@H]1O[C@H](CO)[C@@H](O)[C@H](O)[C@H]1O)[C@H](O)[C@H](O)CO` [Turanose], in [1], the decrease in binding worked out at 1.5 pKeq and the “log Keq (complex formation constant, disaccharides)” value worked out at 1.6.

In the case of `O=C[C@@H](O)[C@@H](O)[C@H](O)[C@H](O)CO` [Mannose], in data set [1], the “log Keq (complex formation constant, monosaccharides)” value was 1.3. As to `[NH3+][C@@H](Cc1ccc([B-]23OC[C@H]4O[C@@](CO)(O2)[C@@H](O3)[C@@H]4O)cc1)C(=O)O` [sodium l-p-boronophenylalanine-d-fructose complex], the “stability of the hydrated solution (remains dissolved)” value in [4] (prolonged standing (i.e., 48 hrs) at room temperature) is given as “remains completely dissolved”. Moreover, the solubility in [4] (warm water, 60° C.) is around 100 mg/mL. Consider `OC[C@@H](O)[C@@H](O)[C@@H](O)CO` [Adonitol], for which the “log Keq (complex formation constant, polyols)” value in data set [1] is 1.7.

`OC[C@H]1O[C@H](O[C@@H]2COC(O)(CO)[C@@H](O)[C@@H]2O)[C@H](O)[C@@H](O)[C@@H]1O` (some centres unmarked) [Leucrose]: in [1], the decrease in binding is reported as 1.5 pKeq and the “log Keq (complex formation constant, disaccharides)” value is reported as 1.7. As for `O=CC[C@@H](O)[C@H](O)[C@H](O)CO` [2-Deoxyglucose], in data set [1], the “log Keq (complex formation constant, monosaccharides)” value is on record as below 0.

As for `[NH3+]C(Cc1ccc([B-]23OC[C@H]4O[C@@](CO)(O2)[C@@H](O3)[C@@H]4O)cc1)C(=O)O` (some centres unmarked) [p-BPA-fructose complex], the toxicity result in [5] is “toxicity observed”. Also, in the data set on murine melanoma model, the 10B uptake result is listed as “increases the ^10 B uptake”. In [6], the “osmotic property of solution” value is “greatly exceeding its iso-osmotic point with blood”. Turning to `CO[C@H]1O[C@H](CO)[C@@H](O)[C@H](O)[C@H]1O` [methyl-α-glucopyranoside], in data set [1], the “binding with l-p-BPA” value is recorded as “complete lack of binding” and the “change in the 1H NMR spectrum of l-p-BPA” value is “no change”.

With `OC[C@H]1O[C@H](OC[C@H]2OC(O)(CO)[C@@H](O)[C@@H]2O)[C@H](O)[C@@H](O)[C@@H]1O` (some centres unmarked) [Palatinose], in [1], the “decrease in the pKeq values of these complexes” value is 0.5 pKeq and the “log Keq (complex formation constant, disaccharides)” value is recorded as 2.6.

On to `O=C[C@H](O)[C@@H](O)[C@@H](O)[C@H](O)CO` [Galactose], for which, in data set [1], the “log Keq (complex formation constant, monosaccharides)” value was 1.6. For the compound `OC[C@H]1O[C@@](CO)(O[C@H]2O[C@H](CO)[C@@H](O)[C@H](O)[C@H]2O)[C@@H](O)[C@@H]1O` [sucrose], in [1], the “binding with l-p-BPA” value is “complete lack of binding” and the “change in the 1H NMR spectrum of l-p-BPA” value was “no change”. With `NC(Cc1ccc(B(O)O)cc1)C(=O)O` (centres unmarked) [hydrochloric acid salts of p-BPA], in [7], the “pH value of solution” value is listed as “approximately 1.5”. In data set [8], the pain on injection entry is reported as “causes pain”.

As for `O=C[C@H](O)[C@@H](O)[C@H](O)[C@H](O)CO` [Glucose], the “log Keq (complex formation constant, monosaccharides)” value in [1] is listed as 1.4. Regarding Maltulose, in [1], the “log Keq (complex formation constant, disaccharides)” value amounted to 3.1 and the “difference in binding constants” value is recorded as “lack of appreciable difference in binding constants”.
